Several values for one entry are separate records, joined by “and”; a condition that tells them apart may be missing. Equal entries are not always repeated.
Tests used:
[1] = system: LNCaP cells; assay: cell proliferation assay; type: cell-based; conditions: Homo sapiens, 72 h, read-out: IC50 values proliferation LNCaP
Protocol: (§1) After 7 days, cell viability was measured using a CellTiter 96® AQueous One Solution Cell Proliferation Assay kit (Promega).

[2] = system: VCaP cells; assay: cell proliferation assay; type: cell-based
Protocol: as §1

[3] = pharmacokinetics of Zeta55 in rats; type: in vivo; conditions: for AUC(0-t): 0-72h
Protocol: To evaluate the pharmacokinetic properties of Zeta55 in vivo, rats were orally (20 mg/kg) or intravenously (5 mg/kg) administrated with Zeta55, and the plasma concentration of Zeta55 was measured using LC-MS/MS.
SD male rats weighing about 250 g were used for the pharmacokinetics study of Zeta55. After a fast of 12 hours, four rats were oral administrated with 20 mg/kg Zeta55 and one rat was tail vein injected with 5 mg/kg Zeta55. Plasma samples of 0.2 ml were taken at 0, 0.083, 0.25, 0.5, 1, 2, 3, 5, 8, 10, 24, 48, and 72 hours after administration and then measured by LC-MS/MS. AUC0-t, AUC0-∞, t1/2, Tmax, Vz/F, and Cl/F were analyzed by Phoenix winnonlin 8.0.

[4] = system: AR-LBD; assay: AR competitive binding, fluorescence polarization
Protocol: To evaluate the AR inhibition activities of Zeta55, an AR luciferase activity assay was performed (Table 1 and Supplementary Figure 1). […]. To evaluate the HDAC inhibition activities of Zeta55, fluorescent-based HDAC assays were performed (Table 1 and Supplementary Figure 3). […]. Both compounds seem ineffective against HDAC4.
Supplementary Figure 1. […]
polarization assay. Test compounds were incubated with recombinant AR-LBD (GST) and the fluorescence polarization (mP) was measured
at an excitation wavelength of 485 nm and emission wavelength of 535 nm. […]

[5] = target: T1, AR (Homo sapiens, UniProt P10275); type: cell-based; conditions: VCaP cells, 10% FBS, 10 μM, 24 hours
T1 construct: The VCaP cells were transfected with MMTV-LUC for 24 hours; endogenous in cells; host or cells: VCaP
T1 sequence (P10275 1-920): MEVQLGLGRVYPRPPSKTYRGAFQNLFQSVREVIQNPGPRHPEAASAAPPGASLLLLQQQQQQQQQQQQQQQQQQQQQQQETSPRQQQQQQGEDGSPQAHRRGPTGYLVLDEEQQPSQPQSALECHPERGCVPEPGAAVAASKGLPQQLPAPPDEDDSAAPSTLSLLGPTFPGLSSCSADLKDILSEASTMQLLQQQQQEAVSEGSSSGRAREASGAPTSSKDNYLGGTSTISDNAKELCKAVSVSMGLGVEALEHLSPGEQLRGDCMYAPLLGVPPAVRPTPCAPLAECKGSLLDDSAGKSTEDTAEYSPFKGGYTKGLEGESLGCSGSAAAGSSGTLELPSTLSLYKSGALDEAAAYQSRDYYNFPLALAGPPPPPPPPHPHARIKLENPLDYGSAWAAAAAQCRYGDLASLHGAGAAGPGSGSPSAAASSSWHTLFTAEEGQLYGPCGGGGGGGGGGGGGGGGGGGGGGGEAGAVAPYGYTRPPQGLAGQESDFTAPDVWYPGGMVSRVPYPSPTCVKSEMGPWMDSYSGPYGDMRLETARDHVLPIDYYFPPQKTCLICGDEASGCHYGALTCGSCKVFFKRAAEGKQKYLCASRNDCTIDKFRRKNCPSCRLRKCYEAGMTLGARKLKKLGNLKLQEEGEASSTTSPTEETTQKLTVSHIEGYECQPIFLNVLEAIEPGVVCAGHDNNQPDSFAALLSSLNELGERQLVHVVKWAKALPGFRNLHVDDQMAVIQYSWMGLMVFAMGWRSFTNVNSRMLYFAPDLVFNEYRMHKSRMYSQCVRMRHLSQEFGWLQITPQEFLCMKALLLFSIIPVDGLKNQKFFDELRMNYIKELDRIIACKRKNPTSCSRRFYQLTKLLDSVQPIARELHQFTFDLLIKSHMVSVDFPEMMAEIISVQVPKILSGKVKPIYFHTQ
Protocol: Cells were fixed with 4% paraformaldehyde for 15 minutes at room temperature, permeabilized with immunostaining permeate for 10 minutes and blocked with 5% BSA containing 1% Tween-20 for 1 hour. After overnight Immunostain with AR Rabbit monoclonal antibody (1:400;CST,5153S) at 4° C, a Cy3 conjugated Goat Anti-Rabbit IgG (1:300; Servicebio, GB21303) reacted for 1 hour. DAPI (4’,6-diamidine-2’-phenylindole, Servicebio, G1012) stained the nuclear to bule for 10 minutes in the dark. Washing three times with PBS between each step. Immunofluorescence images were acquired by fluorescence microscopy using a NIKON ECLIPSE CI microscope (Nikon Corporation; magnification).

[6] = IV, tail vein injection 5 mg/kg, n=1, rats
[7] = male, SD, rat, plasma, IV, tail vein injection 5 mg/kg, n=1, rats
[8] = male, SD, rat, plasma, PO, oral gavage 20 mg/kg, n=4, rats

In the case of `N#Cc1ccc(N2C(=O)C3(CCC3)N(c3ccc(C(=O)NO)c(F)c3)C2=S)cc1C(F)(F)F` [Zeta55], the IC50 [1] is reported as 8.36 µM, the IC50 ([2]; Homo sapiens, VCaP, 168 h, read-out: IC50 values proliferation VCaP) is reported as 2.47 µM and the “anti-proliferation activity relative to MDV3100” value ([2]; VCaP cells) is reported as 4.5 fold. For the same compound, the Cl/F [3, 6] was 114.6149 mL/min/kg, the Vz/F [3, 6] was 7.741576 L/kg and the t1/2 ([3]; PO, oral gavage 20 mg/kg, n=4, rats, plasma, 20 mg/kg) was 174 min and 175.5 min. It also gave a half-life ([3]; male, SD, rat, plasma, iv, 5 mg/kg, tail vein injection 5 mg/kg, n=1, rats) of about 48 min, a half-life ([3]; male, SD, rat, plasma, po, 20 mg/kg, oral gavage 20 mg/kg, n=4, rats) of about 174 min and an AUC(0-inf) [3, 7] of 727 ng·h/mL. The Cmax [3, 7] was 1430 ng/mL, the Tmax [3, 7] was 4.98 min and the AUC(0-t) [3, 7] was 722 ng·h/mL. For the same compound, the bioavailability ([3]; male, SD, rat, plasma, PO 20 mg/kg vs IV 5 mg/kg, rats) was 17.6%, the AUC(0-inf) [3, 8] was 555 ng·h/mL and the CL/F [3, 8] was 632 mL/min/kg. For the same compound, the Cmax [3, 8] was 183 ng/mL, the Tmax [3, 8] was 22.5 min and the AUC(0-t) [3, 8] was 508 ng·h/mL. For the same compound, the Vd/F ([3]; male, SD, rat, plasma, PO, oral gavage 20 mg/kg, n=4, rats, read-out: Vz/F) was 166 L/kg, the “AR binding affinity relative to MDV3100” value [4] was 60% and the “subcellular localization of AR” value [5] was “distributed in both cytoplasm and nucleus”.
